This passage reports TGI and GI50 results from PubChem BioAssay (NCI).

Some test systems named below: SK-MEL-28 melanoma; RPMI-8226 leukemia; MOLT-4 leukemia; U251 CNS; 786-0 renal; SF-295 CNS; OVCAR-5 ovarian; K-562 leukemia; OVCAR-4 ovarian; HCC-2998 colon.
Experiment in all cases: inhibition of tumour cell growth, NCI panel, 48 h

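Dose response: 5 concentrations. Exposure: 48 h. Format: 96-well plates. Endpoint: linear interpolation; highest concentration if not reached. GI50 is the concentration that inhibits growth by half. The concentration for full growth arrest is given as TGI.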 A value given as a limit tells only on which side of the number the result lay.

For `CCCc1ccc(N=Cc2cc(OC)c(OC)c(OC)c2)cc1`, the TGI in the experiment on SK-MEL-28 melanoma is above 100 µM; in the experiment with RPMI-8226 leukemia, above 65.8 µM; in the experiment on MOLT-4 leukemia, above 100 µM; in the experiment on U251 CNS, above 100 µM; in the experiment with 786-0 renal, above 100 µM; in the experiment on SF-295 CNS it was above 100 µM. Also, the TGI in the experiment on OVCAR-5 ovarian is above 100 µM; in the experiment on K-562 leukemia it was above 72.6 µM; in the experiment on OVCAR-4 ovarian it was above 100 µM.

For the compound `CC1=CC[C@@H]2C(C)(C)[C@@H](O)CC[C@@]2(C)[C@@H]1COc1ccc2ccc(=O)oc2c1`, the GI50 was 11.8 µM in the experiment on SK-MEL-28 melanoma; 3.14 µM with MOLT-4 leukemia; 8.82 µM in the experiment on U251 CNS; 13 µM with 786-0 renal; 10.8 µM with SF-295 CNS; 16.6 µM in the experiment on OVCAR-5 ovarian. For the same compound, the GI50 in the experiment on HCC-2998 colon was 12.7 µM; in the experiment with K-562 leukemia, 3.28 µM; with OVCAR-4 ovarian it was 3.66 µM. The TGI in the experiment with SK-MEL-28 melanoma came to 26.7 µM; in the experiment with MOLT-4 leukemia, 15.7 µM; in the experiment on U251 CNS, 27.9 µM; in the experiment with 786-0 renal, 28 µM; with SF-295 CNS it was 23.1 µM; in the experiment on OVCAR-5 ovarian it was 42.3 µM. Also, the TGI in the experiment on HCC-2998 colon was found to be 27.4 µM; in the experiment with K-562 leukemia, 27.5 µM; in the experiment on OVCAR-4 ovarian, 12.7 µM.

In the case of `ClCCn1cnc2c(SCc3ccccc3)ncnc21`, the GI50 in the experiment on SK-MEL-28 melanoma is 10.9 µM; in the experiment on RPMI-8226 leukemia, 0.73 µM; in the experiment on MOLT-4 leukemia it was 0.823 µM; with U251 CNS, 0.623 µM; with 786-0 renal, 1.05 µM; with SF-295 CNS, 3.12 µM. The results for the GI50 in the experiment on OVCAR-5 ovarian, in the experiment on K-562 leukemia and in the experiment with OVCAR-4 ovarian were above 100 µM, 0.64 µM and 19.8 µM, respectively. The TGI in the experiment with SK-MEL-28 melanoma was above 100 µM; with RPMI-8226 leukemia it was 35.5 µM; with MOLT-4 leukemia, above 100 µM; in the experiment on U251 CNS, above 100 µM; in the experiment with 786-0 renal, 19.7 µM; in the experiment on SF-295 CNS, above 100 µM. Further, the TGI with OVCAR-5 ovarian, in the experiment with K-562 leukemia and in the experiment on OVCAR-4 ovarian was above 100 µM in each case.

Consider `OCC1OC(N2C=C(c3nc4ccccc4s3)C3C=CC=CC32)C(O)C1O` (stereo unspecified), for which the GI50 is 10.8 µM in the experiment with SK-MEL-28 melanoma; 7.57 µM in the experiment with RPMI-8226 leukemia; above 50 µM in the experiment on MOLT-4 leukemia; 6 µM in the experiment with U251 CNS; 8.68 µM in the experiment with 786-0 renal; 13.1 µM in the experiment with SF-295 CNS. In addition, the GI50 in the experiment with OVCAR-5 ovarian was 11.3 µM; with K-562 leukemia, 16.3 µM; in the experiment on OVCAR-4 ovarian, 14.3 µM. The TGI with SK-MEL-28 melanoma was 27.8 µM; in the experiment on RPMI-8226 leukemia, 21.8 µM; with MOLT-4 leukemia, above 50 µM; with U251 CNS it was 14.8 µM; in the experiment on 786-0 renal, 19.5 µM; in the experiment on SF-295 CNS it was 43.6 µM. The results for the TGI in the experiment with OVCAR-5 ovarian, with K-562 leukemia and in the experiment with OVCAR-4 ovarian were 32.7 µM, above 50 µM and above 50 µM, respectively.

Consider `Cc1ccc(-n2c(C)nc3c2C(=O)c2ccccc2C3=O)cc1`, for which the TGI with SK-MEL-28 melanoma, in the experiment with MOLT-4 leukemia, with U251 CNS, in the experiment on 786-0 renal, in the experiment with SF-295 CNS and with HCC-2998 colon was above 100 µM throughout. In addition, the TGI in the experiment with K-562 leukemia and in the experiment with OVCAR-4 ovarian was above 100 µM throughout.

For `CC(C)(C)N=CN1CCC(C(c2ccccc2)c2ccccc2)CC1`, the TGI in the experiment with SK-MEL-28 melanoma, with RPMI-8226 leukemia, in the experiment on U251 CNS, with 786-0 renal, in the experiment on SF-295 CNS and in the experiment on OVCAR-5 ovarian was above 100 µM each time. Moreover, the TGI in the experiment on K-562 leukemia and in the experiment on OVCAR-4 ovarian was above 100 µM in each case.

Turning to `Nc1ncnc2c1ncn2C1OC(C(=O)O)C(O)C1O` (stereo unspecified), the TGI with SK-MEL-28 melanoma, in the experiment on RPMI-8226 leukemia, in the experiment on MOLT-4 leukemia, in the experiment on U251 CNS, in the experiment with 786-0 renal and with SF-295 CNS was above 100 µM throughout. For the same compound, the TGI in the experiment with OVCAR-5 ovarian, in the experiment on K-562 leukemia and in the experiment with OVCAR-4 ovarian was above 100 µM each time.

For `O=[N+]([O-])/C=C\c1ccc2c(c1)OCO2`, the GI50 is 4.7 µM in the experiment on SK-MEL-28 melanoma; 1.77 µM with RPMI-8226 leukemia; 17.6 µM in the experiment with MOLT-4 leukemia; 1.95 µM with U251 CNS; 1.84 µM in the experiment with 786-0 renal; 11.5 µM with SF-295 CNS. For the same compound, the GI50 was 11.5 µM with OVCAR-5 ovarian, 3.16 µM with K-562 leukemia and 11.8 µM in the experiment with OVCAR-4 ovarian. The TGI in the experiment with SK-MEL-28 melanoma was 16.4 µM; in the experiment on RPMI-8226 leukemia, 5.07 µM; in the experiment with MOLT-4 leukemia, 67.7 µM; with U251 CNS, 5.02 µM; in the experiment on 786-0 renal, 3.52 µM; with SF-295 CNS, 26.5 µM. Moreover, the TGI with OVCAR-5 ovarian is 26.4 µM; with K-562 leukemia, above 100 µM; in the experiment on OVCAR-4 ovarian, 24.2 µM.

`Cc1ccc(S(=O)(=O)NCCN2c3nc4ccccc4cc3Sc3cc4ccccc4nc32)cc1`: the GI50 with SK-MEL-28 melanoma is above 100 µM; in the experiment on MOLT-4 leukemia, above 100 µM; in the experiment on U251 CNS it was 4.93 µM; in the experiment with 786-0 renal, 1.67 µM; in the experiment with SF-295 CNS, 4.04 µM; in the experiment with OVCAR-5 ovarian, above 100 µM. Moreover, the GI50 in the experiment with HCC-2998 colon and in the experiment with K-562 leukemia was above 100 µM in each case. Moreover, the TGI is above 100 µM with SK-MEL-28 melanoma; above 100 µM in the experiment on MOLT-4 leukemia; above 89.9 µM with U251 CNS; above 45.9 µM in the experiment on 786-0 renal; 18.5 µM with SF-295 CNS; above 100 µM in the experiment with OVCAR-5 ovarian. Further, the TGI in the experiment on HCC-2998 colon and in the experiment on K-562 leukemia was above 100 µM in each case.

Turning to `C=CCN(N=O)C(=O)N(CCC)CCCC(NC(C)=O)C(=O)NCc1ccccc1` (stereo unspecified), the TGI in the experiment with SK-MEL-28 melanoma, with RPMI-8226 leukemia, in the experiment with MOLT-4 leukemia, in the experiment on U251 CNS, with 786-0 renal and in the experiment with SF-295 CNS was above 100 µM each time. Besides, the TGI in the experiment on OVCAR-5 ovarian, with K-562 leukemia and with OVCAR-4 ovarian was above 100 µM throughout.
